Data reported in patent US20250382344A1, “Soluble GLP1/GIP/NPY2 Receptor Triple Agonists” (Boehringer Ingelheim International GmH, priority 2024, published 2025).
Where two headings read alike, the source gives them in different places.

Assays:
hGIPR = molecular target: T1, hGIPR (Homo sapiens, UniProt P48546); assay: hGIPR CreLuc assay in 0.5% and 100% plasma (CHO CRE-luciferase reporter cells); format: cell-based
T1 construct: expressed in transfected cells; host or cells: CHO CRE-luciferase reporter cells
T1 sequence (P48546 22-466): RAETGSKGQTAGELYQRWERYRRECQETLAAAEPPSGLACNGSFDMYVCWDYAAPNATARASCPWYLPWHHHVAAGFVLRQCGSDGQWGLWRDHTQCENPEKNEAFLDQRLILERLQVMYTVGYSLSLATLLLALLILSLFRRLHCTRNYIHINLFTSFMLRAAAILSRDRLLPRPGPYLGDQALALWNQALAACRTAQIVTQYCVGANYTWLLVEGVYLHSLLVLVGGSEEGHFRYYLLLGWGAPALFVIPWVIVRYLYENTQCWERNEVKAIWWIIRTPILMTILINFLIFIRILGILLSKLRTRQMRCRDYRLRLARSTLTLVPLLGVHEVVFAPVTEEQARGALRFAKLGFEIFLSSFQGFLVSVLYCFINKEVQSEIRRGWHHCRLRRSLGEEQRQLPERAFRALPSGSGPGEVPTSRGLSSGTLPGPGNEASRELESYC

Normal NMRI Mice = assay: Effect on acute food intake in normal NMRI mice; format: in vivo; conditions: male NMRI mice, single subcutaneous dose 100 nmol/kg, 24 hours food intake normalized to vehicle group
Description: Male NMRI mice were obtained from Janvier (Janvier Labs, France) or from Charles River (Charles River Research Models & Services Germany GmbH) at the age of 3 weeks. The animals get a microchip (Datamars, Slim Microchip T-SL) for individual identification after delivery. They were housed with 4 mice per cage under a 12/12 dark-light cycle, light off at 3 p.m. Room temperature was controlled to 21° C.+/−1° C. and humidity 60%+/−20%. Mice had ad libitum access to regular rodent chow (KLIBA Nafag 3040 or Altromin 1324, Brogaarden, Denmark) and tap water.
Latest transfer into the HM2-System of MBRose, Denmark (real-time monitoring system of food- and water intake) of the animals 5 days before study start, to allow acclimatization to experimental conditions. As the animals were uniquely identified with the microchips, each individual animal was identified by its own microchip upon entry and exit from the food channel via antennae. Randomization of the mice for each study group (n=8; age earliest 6 weeks old) was based on food intake (middle of last three days 24 h-interval) and bodyweight directly before start of the study. A vehicle treated (50 mM phosphate buffer pH 7.4 with 3.5% mannitol) group was included in each experiment. To have the same nutrition standard for each animal the food access was locked eight hours before dark phase. One hour before night, the animals were once treated subcutaneously with the test peptide. Food intake was reported hourly for a period of 24 hours.

[1] = Solubility in 0.1 M phosphate buffer at pH 7; format: physicochemical; conditions: 0.1 M phosphate buffer at pH 7, 10 mg/mL final peptide concentration, shaking 2 hours at room temperature, peptides as TFA-salts; measured sample pH 6.5-7.0
hGLP1R = molecular target: T2, hGLP1R (Homo sapiens, UniProt P43220); assay: hGLP1R CreLuc assay in 0.5% and 100% plasma (HEK-293 CRE-luciferase reporter cells); format: cell-based; conditions: HEK-293 reporter cells
T2 construct: expressed in transfected cells; host or cells: HEK-293 CRE-luciferase reporter cells
T2 sequence (P43220 24-463): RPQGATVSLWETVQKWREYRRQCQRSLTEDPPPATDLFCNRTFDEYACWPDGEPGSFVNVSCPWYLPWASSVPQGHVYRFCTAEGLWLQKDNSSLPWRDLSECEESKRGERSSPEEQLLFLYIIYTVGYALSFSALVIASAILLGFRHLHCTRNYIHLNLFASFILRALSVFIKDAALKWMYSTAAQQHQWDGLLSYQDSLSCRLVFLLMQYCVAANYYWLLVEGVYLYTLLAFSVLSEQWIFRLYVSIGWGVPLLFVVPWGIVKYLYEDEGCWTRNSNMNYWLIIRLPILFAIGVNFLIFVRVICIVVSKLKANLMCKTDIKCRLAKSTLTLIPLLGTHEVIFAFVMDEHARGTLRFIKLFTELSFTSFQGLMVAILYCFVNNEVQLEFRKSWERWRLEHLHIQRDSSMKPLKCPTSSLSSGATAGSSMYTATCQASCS

[2] = Mouse PK after intravenous application; format: in vivo; conditions: plasma, male NMRI mice, intravenous 30-60 nmol/kg, non-compartmental analysis
How it was run: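 Male NMRI mice (30–40 g) dosed 30-60 nmol/kg by tail vein in 50 mM phosphate buffer pH 7.4/3.5% mannitol. Saphenous EDTA blood sampled from conscious animals up to 56 h; plasma peptide quantified by LC-MS. Parameters from non-compartmental analysis of individual profiles.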

hNPY2R = molecular target: T3, hNPY2R (Homo sapiens, UniProt P49146); assay: hNPY2R CreLuc assay in 0.5% and 100% plasma (HEK-293 CRE-luciferase reporter cells); format: cell-based; conditions: 0.5% human plasma, HEK-293 reporter cells, read-out: hNPY2R 0.5% hP
T3 construct: expressed in transfected cells; host or cells: HEK-293 CRE-luciferase reporter cells
T3 sequence (P49146 1-381): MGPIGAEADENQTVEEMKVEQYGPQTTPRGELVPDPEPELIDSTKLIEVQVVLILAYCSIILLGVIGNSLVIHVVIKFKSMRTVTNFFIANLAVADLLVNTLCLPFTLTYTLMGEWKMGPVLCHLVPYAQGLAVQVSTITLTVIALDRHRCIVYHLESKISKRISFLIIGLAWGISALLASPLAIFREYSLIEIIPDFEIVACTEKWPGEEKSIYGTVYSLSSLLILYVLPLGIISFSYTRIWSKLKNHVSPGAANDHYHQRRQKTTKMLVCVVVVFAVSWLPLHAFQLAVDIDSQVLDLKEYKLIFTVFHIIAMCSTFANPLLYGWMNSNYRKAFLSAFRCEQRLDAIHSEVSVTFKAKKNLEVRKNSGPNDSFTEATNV

[3] = 0.5% human plasma, read-out: hGIPR 0.5% hP
[4] = 0.5% human plasma, read-out: hGLP1R 0.5% hP

Row | solubility at 2 h [1] | EC50 (hGIPR; [3]) | EC50 (hGIPR; 100% human plasma, read-out: hGIPR 100% hP) | EC50 (hGLP1R; [4]) | EC50 (hGLP1R; 100% human plasma, read-out: hGLP1R 100% hP) | MRT [2] | EC50 (hNPY2R) | SMILES | EC50 (hGIPR; hGIPR 0.5% hP (nM), 0.5% human plasma) | EC50 (hGIPR; hGIPR 100% hP (nM), 100% human plasma) | Acute Food Intake 24 hours 100 nmol/kg [% CTL] (Normal NMRI Mice)
1 | 10400 µg/mL | 0.1 nM | 1.7 nM | 0.2 nM | 1.8 nM | – | – | CC[C@H](C)[C@H](NC(=O)[C@H](Cc1ccccc1)NC(=O)[C@H](C)NC(=O)C(C)(C)NC(=O)[C@H](CCC(N)=O)NC(=O)[C@H](C)NC(=O)[C@H](CCC(N)=O)NC(=O)[C@H](CCCCN)NC(=O)[C@H](CCC(=O)O)NC(=O)[C@H](CC(C)C)NC(=O)C(C)(C)NC(=O)[C@@H](NC(=O)[C@H](CO)NC(=O)[C@H](Cc1ccc(O)cc1)NC(=O)[C@H](CC(=O)O)NC(=O)[C@H](CO)NC(=O)[C@@H](NC(=O)[C@H](Cc1ccccc1)NC(=O)[C@@H](NC(=O)CNC(=O)[C@H](CCC(=O)O)NC(=O)C(C)(C)NC(=O)[C@@H](N)Cc1ccc(O)cc1)[C@@H](C)O)[C@@H](C)O)[C@@H](C)CC)C(=O)N[C@@H](CCCNC(=N)N)C(=O)N[C@@H](Cc1c[nH]cn1)C(=O)N[C@@H](CC(C)C)C(=O)N[C@H](C(=O)N[C@@H](CC(N)=O)C(=O)N[C@@H](CCCCNC(=O)[C@@H](N)CCCCNC(=O)CC[C@H](NC(=O)CC[C@H](NC(=O)CC[C@H](NC(=O)CC[C@H](NC(=O)CC[C@H](NC(=O)CC[C@H](NC(=O)CCCCCCCCCCCCCCCCC(=O)O)C(=O)O)C(=O)O)C(=O)O)C(=O)O)C(=O)O)C(=O)O)C(=O)NC(C)(C)C(=O)N[C@H](C(=O)N[C@@H](CCCNC(=N)N)C(=O)N[C@@H](CCC(N)=O)C(=O)N[C@@H](CCCNC(=N)N)C(=O)N[C@@H](Cc1ccc(O)cc1)C(N)=O)[C@@H](C)O)[C@@H](C)CC [Compound 88, Y-Aib-E-G-T-F-T-S-D-Y-S-I-Aib-L-E-K-Q-A-Q-Aib-A-F-I-R-H-L-I-N-K(1,3)-Aib-T-R-Q-R-Y-NH2.C18DA-gGlu-gGlu-gGlu-gGlu-gGlu-gGlu-eLys(1,2)] | – | – | 47 % CTL
2 | 3800 µg/mL | 0.4 nM | – | 0.6 nM | – | 7.8 h | 16.8 nM | CC[C@H](C)[C@H](NC(=O)[C@H](CC(C)C)NC(=O)[C@H](Cc1c[nH]cn1)NC(=O)[C@H](CCCNC(=N)N)NC(=O)[C@@H](NC(=O)[C@H](Cc1ccccc1)NC(=O)[C@H](CCC(=O)O)NC(=O)C(C)(C)NC(=O)[C@H](CCC(N)=O)NC(=O)[C@H](C)NC(=O)[C@H](CCC(N)=O)NC(=O)[C@H](CCCCN)NC(=O)[C@H](CCC(=O)O)NC(=O)[C@H](CC(C)C)NC(=O)C(C)(C)NC(=O)[C@@H](NC(=O)[C@H](CO)NC(=O)[C@H](Cc1ccc(O)cc1)NC(=O)[C@H](CC(=O)O)NC(=O)[C@H](CO)NC(=O)[C@@H](NC(=O)[C@H](Cc1ccccc1)NC(=O)[C@@H](NC(=O)CNC(=O)[C@H](CCC(=O)O)NC(=O)C(C)(C)NC(=O)[C@@H](N)Cc1ccc(O)cc1)[C@@H](C)O)[C@@H](C)O)[C@@H](C)CC)C(C)C)C(=O)N[C@@H](CC(N)=O)C(=O)N[C@@H](CCCCNC(=O)[C@@H](N)CCCCNC(=O)CC[C@H](NC(=O)CC[C@H](NC(=O)CC[C@H](NC(=O)CC[C@H](NC(=O)CC[C@H](NC(=O)CC[C@H](NC(=O)CCCCCCCCCCCCCCCCC(=O)O)C(=O)O)C(=O)O)C(=O)O)C(=O)O)C(=O)O)C(=O)O)C(=O)N[C@@H](CC(C)C)C(=O)N[C@H](C(=O)N[C@@H](CCCNC(=N)N)C(=O)N[C@@H](CCC(N)=O)C(=O)N[C@@H](CCCNC(=N)N)C(=O)N[C@@H](Cc1ccc(O)cc1)C(N)=O)[C@@H](C)O [Compound 83, Y-Aib-E-G-T-F-T-S-D-Y-S-I-Aib-L-E-K-Q-A-Q-Aib-E-F-V-R-H-L-I-N-K(1,3)-L-T-R-Q-R-Y-NH2.C18DA-gGlu-gGlu-gGlu-gGlu-gGlu-gGlu-eLys(1,2)] | – | – | –
3 | 10300 µg/mL | 0.1 nM | – | 0.2 nM | – | – | – | CC[C@H](C)[C@H](NC(=O)[C@H](CC(C)C)NC(=O)[C@H](Cc1c[nH]cn1)NC(=O)[C@H](CCCNC(=N)N)NC(=O)[C@@H](NC(=O)[C@H](Cc1ccccc1)NC(=O)[C@H](C)NC(=O)C(C)(C)NC(=O)[C@H](CCC(N)=O)NC(=O)[C@H](C)NC(=O)[C@H](CCC(N)=O)NC(=O)[C@H](CCCCN)NC(=O)[C@H](CCC(=O)O)NC(=O)[C@H](CC(C)C)NC(=O)[C@](C)(CC(C)C)NC(=O)[C@@H](NC(=O)[C@H](CO)NC(=O)[C@H](Cc1ccc(O)cc1)NC(=O)[C@H](CC(=O)O)NC(=O)[C@H](CO)NC(=O)[C@@H](NC(=O)[C@H](Cc1ccccc1)NC(=O)[C@@H](NC(=O)CNC(=O)[C@H](CCC(=O)O)NC(=O)C(C)(C)NC(=O)[C@@H](N)Cc1ccc(O)cc1)[C@@H](C)O)[C@@H](C)O)[C@@H](C)CC)C(C)C)C(=O)N[C@@H](CC(N)=O)C(=O)N[C@@H](CCCCNC(=O)[C@@H](N)CCCCNC(=O)CC[C@H](NC(=O)CC[C@H](NC(=O)CC[C@H](NC(=O)CC[C@H](NC(=O)CC[C@H](NC(=O)CC[C@H](NC(=O)CC[C@H](NC(=O)CCCCCCCCCCCCCCCCCCC(=O)O)C(=O)O)C(=O)O)C(=O)O)C(=O)O)C(=O)O)C(=O)O)C(=O)O)C(=O)NC(C)(C)C(=O)N[C@H](C(=O)N[C@@H](CCCNC(=N)N)C(=O)N[C@@H](CCC(N)=O)C(=O)N[C@@H](CCCNC(=N)N)C(=O)N[C@@H](Cc1ccc(O)cc1)C(N)=O)[C@@H](C)O [Compound 78, Y-Aib-E-G-T-F-T-S-D-Y-S-I-aMeL-L-E-K-Q-A-Q-Aib-A-F-V-R-H-L-I-N-K(1,3)-Aib-T-R-Q-R-Y-NH2.C20DA-gGlu-gGlu-gGlu-gGlu-gGlu-gGlu-gGlu-eLys(1,2)] | – | – | 65 % CTL

Row | SMILES | solubility at 2 h [1] | EC50 (hGIPR; [3]) | EC50 (hGIPR; 100% human plasma, read-out: hGIPR 100% hP) | EC50 (hGLP1R; [4]) | EC50 (hGLP1R; 100% human plasma, read-out: hGLP1R 100% hP) | MRT [2] | EC50 (hNPY2R) | EC50 (hGIPR; hGIPR 0.5% hP (nM), 0.5% human plasma) | EC50 (hGIPR; hGIPR 100% hP (nM), 100% human plasma) | Acute Food Intake 24 hours 100 nmol/kg [% CTL] (Normal NMRI Mice)
4 | CC[C@H](C)[C@H](NC(=O)[C@H](CC(C)C)NC(=O)[C@H](Cc1c[nH]cn1)NC(=O)[C@H](CCCNC(=N)N)NC(=O)[C@@H](NC(=O)[C@H](Cc1ccccc1)NC(=O)[C@H](C)NC(=O)C(C)(C)NC(=O)[C@H](CCC(N)=O)NC(=O)[C@H](C)NC(=O)[C@H](CCC(N)=O)NC(=O)[C@H](CCCCN)NC(=O)[C@H](CCC(=O)O)NC(=O)[C@H](CC(C)C)NC(=O)C(C)(C)NC(=O)[C@@H](NC(=O)[C@H](CO)NC(=O)[C@H](CC(C)C)NC(=O)[C@H](CC(=O)O)NC(=O)[C@H](CO)NC(=O)[C@@H](NC(=O)[C@H](Cc1ccccc1)NC(=O)[C@@H](NC(=O)CNC(=O)[C@H](CCC(=O)O)NC(=O)C(C)(C)NC(=O)[C@@H](N)Cc1ccc(O)cc1)[C@@H](C)O)[C@@H](C)O)[C@@H](C)CC)C(C)C)C(=O)N[C@@H](CC(N)=O)C(=O)N[C@@H](CCCCNC(=O)[C@@H](N)CCCCNC(=O)CC[C@H](NC(=O)CC[C@H](NC(=O)CC[C@H](NC(=O)CC[C@H](NC(=O)CC[C@H](NC(=O)CC[C@H](NC(=O)CCCCCCCCCCCCCCCCCCC(=O)O)C(=O)O)C(=O)O)C(=O)O)C(=O)O)C(=O)O)C(=O)O)C(=O)NC(C)(C)C(=O)N[C@H](C(=O)N[C@@H](CCCNC(=N)N)C(=O)N[C@@H](CCC(N)=O)C(=O)N[C@@H](CCCNC(=N)N)C(=O)N[C@@H](Cc1ccc(O)cc1)C(N)=O)[C@@H](C)O [Compound 20, Y-Aib-E-G-T-F-T-S-D-L-S-I-Aib-L-E-K-Q-A-Q-Aib-A-F-V-R-H-L-I-N-K(1,3)-Aib-T-R-Q-R-Y-NH2.C20DA-gGlu-gGlu-gGlu-gGlu-gGlu-gGlu-eLys(1,2)] | 8500 µg/mL | – | – | – | – | – | – | 0.4 nM | 6.9 nM | 79 % CTL
